One test concerns the target T1, M. tb EgtD (Mycobacterium tuberculosis, UniProt P9WN47).
T1 construct: thioredoxin (N, cleaved yes); polyhistidine (N, cleaved yes); made in house; host or cells: E. coli (T7 cells), pET32-derived vector
T1 sequence (P9WN47 1-321): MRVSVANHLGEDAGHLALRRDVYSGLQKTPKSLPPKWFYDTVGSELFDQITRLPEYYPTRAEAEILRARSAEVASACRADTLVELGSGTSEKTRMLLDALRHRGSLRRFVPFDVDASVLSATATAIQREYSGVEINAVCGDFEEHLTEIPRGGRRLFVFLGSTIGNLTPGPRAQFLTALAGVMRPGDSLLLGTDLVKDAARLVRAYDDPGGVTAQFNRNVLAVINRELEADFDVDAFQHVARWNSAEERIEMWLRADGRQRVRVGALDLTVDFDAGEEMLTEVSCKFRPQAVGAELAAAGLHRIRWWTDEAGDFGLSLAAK
The experiment in a line: biochemical.

For a further test, the system named is M. tb. Set-up: method as in PMID 22100163, PMID 24586159, PMID 22988030. The following applies: macrophage cells and infected mice; cited from earlier work.
Test [1] concerns Mycobacterium marinum (M. marinum). To be noted: cited from earlier work.

The source of these data is PMC8593015 (Scientific Reports, 2021).

“And” between values parts separate entries of the source, which are not always exact repeats. Identical values can stand only once. Some results are limits rather than exact numbers.

As a reminder, the EC50 is the concentration needed to bring the measured effect to its halfway point.

For the compound `CS(=O)(=O)c1ccc(-c2nc(-c3ccc(F)cc3)c(-c3ccncc3)[nH]2)cc1` [Cay-10571, reference compound], at M. tb EgtD, the 50% effective concentration (EC50) was < 20 µM and 7 µM.
Still for that read-out and setting: the result for `O=C(O)CNc1cccc(C(=O)NCCc2c[nH]cn2)c1` [HD1] reads 89 ± 19 µM; that for `O=C(O)C(Cc1cnc[nH]1)n1cccc1` (centres unmarked) [HD2], 33 ± 3 µM; that for `O=C(O)C(Cc1cnc[nH]1)NC(=S)NCc1ccccc1` (centres unmarked) [HD3], 47 ± 5 µM.
The same measure, in the same setting: the result for `CCOc1ccccc1CN(CC)C(=O)[C@H](N)Cc1c[nH]cn1` [HD4] reads 25 ± 4 µM.
Still for that read-out and setting: the result for `CN(Cc1ccc(Oc2ccccc2)cc1)C(=O)[C@H](N)Cc1c[nH]cn1` [HD5] reads 30 ± 3 µM.
In the case of `O=C(N[C@@H](Cc1c[nH]cn1)C(=O)O)C1CC=CC1` [HD6], the 50% effective concentration (EC50) at M. tb EgtD came out at 85 ± 19 µM. The “fold decrease in inhibitory activity versus HD2 and HD3” value at M. tb EgtD (ratio of EC50 values) was 1.5–2.5 fold.
`CN(C)CCN(Cc1cnc[nH]1)C(=O)CN(C)Cc1ccccc1` [HD7] registered a concentration giving a half-maximal response (EC50) at M. tb EgtD of 85 ± 12 µM.
Same read-out and setting: the result for `Cc1ccc(C(C)C(=O)N(CCN(C)C)Cc2cnc[nH]2)cc1` (centres unmarked) [HD8] reads 160 ± 60 µM; that for `CCOc1ccccc1OCCN(C)Cc1cnc[nH]1` [HD9], 36 ± 4 µM.
On M. tb EgtD, `Cc1cccc(C(C(=O)NCCc2c[nH]cn2)N(C)C)c1` (centres unmarked) [HD10] gave an EC50 of 32 ± 4 µM.
Turning to `Cc1ccc(NC(=O)c2ccc(CN3CCN(C)CC3)cc2)cc1Nc1nccc(-c2cccnc2)n1` [Imatinib], in the test on M. tb, the “intracellular replication of M. tb” value is reported as “decrease in the intracellular replication”. For the same compound, the “effect of combination with Rifampicin” value in test [1] (M. marinum-infected macrophage cells, Imatinib and Rifampicin) is recorded as “synergistic effect”. Moreover, the “intracellular replication of M. marinum” value in test [1] (macrophage cells and infected mice) is given as “decrease in the intracellular replication”.
Consider `O=c1cc(N2CCOCC2)oc2c1ccc1ccccc12` [NU-7026, reference compound], for which the EC50 on M. tb EgtD was < 20 µM and 5.4 µM.
Regarding `Cc1cc(C(C)Nc2ccccc2)c2nc(N3CCOCC3)cc(=O)n2c1` (centres unmarked) [TGX-221, reference compound], the EC50 at M. tb EgtD is < 20 µM and 15.2 µM.
